Measurements reported in publication PMC7288171, “Synergistic Effects of Thiosemicarbazides with Clinical Drugs against S. aureus” (Molecules, 2020).
In brackets after ≈: the same amount, converted by molar mass. Read-outs that look alike come from different tables or passages of the source.

Key:
B. cereus ATCC 10876 = experiment: MIC, broth microdilution; type: cell-based; conditions: Bacillus cereus, ATCC10876; B. c. ATCC 10876; compounds 6–9 and antibiotics; read-out: MIC
Method: (§1) The antibacterial activity of the thiosemicarbazides 1–9 and antibiotics (amoxicillin, gentamicin, levofloxacin, linezolid, and vancomycin) was tested on the Gram-positive strains (Microbiologics, St. Cloud, MN, USA) (S. aureus ATCC 25923, S. aureus ATCC 6538, S. epidermidis ATCC 12228, B. subtilis ATCC 6633, B. cereus ATCC 10876, M. luteus ATCC 10240), the Gram-negative strains (Microbiologics, St. Cloud, MN, USA) (E. coli ATCC 25922, K. pneumoniae ATCC 13883, P. mirabilis ATCC 12453, P. aeruginosa ATCC 9027), and clinical isolates of S. aureus (Medical University of Lublin, Lublin, Poland) (MSSA-1, MSSA-2, MSSA-3, MSSA-4, MRSA-1).

B. subtilis ATCC 6633 = experiment: MIC, broth microdilution; type: cell-based; conditions: Bacillus subtilis, ATCC6633; B. s. ATCC 6633; compounds 6–9 and antibiotics; read-out: MIC
Method: as §1

M. luteus ATCC 10240 = experiment: MIC, broth microdilution; type: cell-based; conditions: Micrococcus luteus, ATCC10240; M. l. ATCC 10240; compounds 6–9 and antibiotics; read-out: MIC
Method: as §1

S. aureus ATCC 25923 [1] = experiment: MIC, broth microdilution; type: cell-based; conditions: S. a. ATCC 25923, compounds 6–9 and antibiotics
Method: as §1

S. aureus ATCC 6538 = experiment: MIC, broth microdilution; type: cell-based; conditions: Staphylococcus aureus, ATCC6538; S. a. ATCC 6538; compounds 6–9 and antibiotics; read-out: MIC
Method: as §1

[2] = tested on: S. epidermidis ATCC 12228; experiment: MIC, broth microdilution; type: cell-based; conditions: Staphylococcus epidermidis, ATCC12228; S. e. ATCC 12228; compounds 6–9 and antibiotics; read-out: MIC
Method: as §1

MRSA-1 = experiment: MIC, clinical isolate of S. aureus; type: cell-based; conditions: Staphylococcus aureus; clinical isolate MRSA-1; read-out: MIC
Method: as §1

MSSA-1 = experiment: MIC, clinical isolate of S. aureus; type: cell-based; conditions: Staphylococcus aureus; clinical isolate MSSA-1; read-out: MIC
Method: as §1

MSSA-2 = experiment: MIC, clinical isolate of S. aureus; type: cell-based; conditions: Staphylococcus aureus; clinical isolate MSSA-2; read-out: MIC
Method: as §1

MSSA-3 = experiment: MIC, clinical isolate of S. aureus; type: cell-based; conditions: Staphylococcus aureus; clinical isolate MSSA-3; read-out: MIC
Method: as §1

MSSA-4 = experiment: MIC, clinical isolate of S. aureus; type: cell-based; conditions: Staphylococcus aureus; clinical isolate MSSA-4; read-out: MIC
Method: as §1

MTT cytotoxicity assay = type: cell-based, human; conditions: human, Hs27 foreskin fibroblast cells (ATCC CRL-1634), 25 µg/mL, 24 h, vehicle control = 100%
Method: (§2) A critical factor in research and development of new antibacterial agents is their abilities to selectively target bacterial cells without toxicity to mammalian cells. Thus, in order to test if antibacterial activity of title thiosemicarbazides is not due to their general toxicity, their effect on mammalian cell viability was assessed using human foreskin fibroblast Hs27 cells (CRL-1634) via MTT assay.
(§3) Cytotoxic properties of the compounds were evaluated using human foreskin fibroblast cells Hs27 (ATCC CRL-1634) (ATCC, Manassas, VA, USA) that were cultured in DMEM-high glucose (Sigma Aldrich, St. Louis, MO, USA). Medium was supplemented with 10% fetal bovine serum (FBS, Sigma Aldrich), 100 U/mL of penicillin, and […] of streptomycin (PenStrep, Sigma Aldrich, St. Louis, MO, USA). Cells were incubated at 37 °C in a humidified atmosphere of 5% CO2. Stock solutions of the tested compounds were prepared dissolving in a sterile dimethyl sulfoxide (DMSO) to the concentration of 50 mg/mL. The cells were seeded into 96-well sterile plates (Nunc) at a cell density of 1 × 10^5 cells/mL. After 24 h of incubation, the medium was removed from each well, and then cells were incubated for the next 24 h with tested compounds (in a fixed dose of 25 µg/mL) in DMEM-high glucose containing 2% FBS. Control cells were cultured only with medium containing 2% addition of FBS. Cytotoxicity of the compounds was evaluated using MTT assay, which is based on the conversion of 3-(4,5-dimethylthiazol-2-yl)-2,5- diphenyltetrazolium bromide (MTT) into dark-blue formazan crystals. Briefly, after 24-h incubation of cells with varying concentrations of the tested compounds, culture medium was removed from the plates. Cells were washed with PBS, and then 100 µL of medium containing 10% MTT solution (5 mg/mL) was added to each well. Cells were incubated for the next 3 h at 37 °C in an atmosphere of 5% CO2. Next, 100 µL (per well) of 10% sodium dodecyl sulfate (SDS) buffer solution was added to dissolve formazan crystals and after an overnight incubation the absorbance was measured at 570 nm using a microplate reader (Epoch, BioTek Instruments, Inc., Winooski, VT, USA).

[3] = tested on: human foreskin fibroblast Hs27 cells (CRL-1634); experiment: MTT cytotoxicity assay; type: cell-based; conditions: Homo sapiens, 24 h of treatment
Method: as §2, §3

S. aureus ATCC 25923 [4] = experiment: Checkerboard broth dilution synergy assay; type: cell-based
Method: The microdilution checkerboard method was used to evaluate the synergistic effects between the thiosemicarbazides 1–9 and antibiotics, which were determined as the fractional inhibitory concentration indices (FICIs). For these experiments, amoxicillin, gentamicin, levofloxacin, linezolid, and vancomycin were selected to represent the five antimicrobial classes most commonly used in clinical practice. In this way, a total of 45 combinations of thiosemicarbazide-amoxicillin, thiosemicarbazide-gentamicin, thiosemicarbazide-levofloxacin, thiosemicarbazide-linezolid, and thiosemicarbazide-vancomycin against S. aureus ATCC 25923 were tested to identify in vitro synergy effects.
Interaction of the thiosemicarbazides 1–9 in combination with amoxicillin, gentamicin, levofloxacin, linezolid or vancomycin against S. aureus ATCC 25923 were analyzed using the checkerboard broth dilution method to determine the fractional inhibitory concentration indices (FICIs), calculated as: FIC = MIC of drug A in combination/MIC of drug A alone + MIC of drug B in combination/MIC of drug B alone. The calculated FICIs were interpreted as synergistic (FIC ≤ 0.5), additive (0.5 < FIC < 1), indifferent (1 ≤ FIC < 4.0), or antagonistic (FIC ≥ 4.0). The checkerboard assay included ciprofloxacin-carvedilol combination as positive control, whereas cefuroxime in combination with 4-(4-bromophenyl)-1-(3-fluorobezoyl)thiosemicarbazide served as negative control. The Z-factor value for the bioassay was 0.683.

S. aureus DNA gyrase = target: T1, S. aureus DNA gyrase (Staphylococcus aureus, UniProt P0A0K8+P20831); experiment: Gyrase supercoiling assay; type: biochemical; conditions: read-out: S. aureus Gyrase DNA Inhibition (%) ± SD
T1 construct: purchased Inspiralis, Norwich, UK
Method: Supercoiling assay: The assays were performed using S. aureus Gyrase Supercoiling Assay Kits (Inspiralis, Norwich, UK). Briefly, […] pBR322 plasmid DNA (0.5 µg) was incubated with 1 unit of gyrase, in the dedicated supercoiling assay buffer supplied by the manufacturer, in the presence of varying concentrations of the test compounds. Reactions were carried out at 37 °C for 1 h and then terminated by the addition of equal volume of 2 × STOP Buffer (40% sucrose, 100 mM Tris-Cl pH 7.5, 1 mM EDTA, and 0.5 mg/mL bromophenol blue) and chloroform/iso-amyl alcohol. Samples were vortexed, centrifuged, and run through a 15 cm 1% agarose gel in TAE buffer (40 mM Tris-acetate, 2 mM EDTA) for 3 h at 50 V. Gels were stained with ethidium bromide and visualized under UV light.

[5] = target: T2, S. aureus topoisomerase IV (Staphylococcus aureus, UniProt P0C1S7+P0C1U9); experiment: Topoisomerase IV decatenation assay; type: biochemical; conditions: in words; 50 and 100 µM tested (Figures S1–S3)
T2 construct: purchased Inspiralis, Norwich, UK
Method: Inhibition of decatenation activity of S. aureus topoisomerase IV: The assay was performed using S. aureus topoisomerase IV decatenation kits (Inspiralis, Norwich, UK). Interlinked kDNA substrate (0.5 µg) was incubated with 1 unit of topoisomerase IV (Inspiralis, Norwich, UK), in the dedicated decatenation assay buffer supplied by the manufacturer, in the presence of varying concentrations of the test compounds. Reactions were carried out at 37 °C for 1 h and then terminated by the addition of equal volume of 2 × STOP Buffer and chloroform/iso-amyl alcohol. Samples were vortexed, centrifuged, and run through a 15 cm 1% agarose gel in TAE buffer for 1.5 h at 80 V. Gels were stained with ethidium bromide and visualized under UV light.

[6] = Staphylococcus aureus, ATCC25923, read-out: MIC

MIC (B. cereus ATCC 10876) [µg/mL] | MIC (B. subtilis ATCC 6633) [µg/mL] | MIC (M. luteus ATCC 10240) [µg/mL] | MIC (S. aureus ATCC 25923 [1]; [6]) [µg/mL] | MIC (S. aureus ATCC 6538) [µg/mL] | MIC [2] [µg/mL] | MIC (MRSA-1) [µg/mL] | MIC (MSSA-1) [µg/mL] | MIC (MSSA-2) [µg/mL] | MIC (MSSA-3) [µg/mL] | MIC (MSSA-4) [µg/mL] | melting point [°C] | SMILES | MIC (S. aureus ATCC 25923 [1]) [µg/mL] | viability at 24 h, 25 µg/mL (MTT cytotoxicity assay) [%] | IC50 [3] [µg/mL] | interaction in combination (S. aureus ATCC 25923 [4]; combination with amoxicillin) | interaction in combination (S. aureus ATCC 25923 [4]; combination with gentamicin) | interaction in combination (S. aureus ATCC 25923 [4]; combination with levofloxacin) | interaction in combination (S. aureus ATCC 25923 [4]; combination with linezolid) | interaction in combination (S. aureus ATCC 25923 [4]; combination with vancomycin) | further results
7.82 (≈ 21.9 µM) | 7.82 (≈ 21.9 µM) | 7.82 (≈ 21.9 µM) | 15.6 (≈ 43.7 µM) | 15.6 (≈ 43.7 µM) | 7.82 (≈ 21.9 µM) | > 500 | 62.5 (≈ 175 µM) | > 500 | > 500 | > 500 | 176 to 178 | O=C(NNC(=S)Nc1cccc(C(F)(F)F)c1)c1ccccc1F [compound 8, 1-(2-fluorobenzoyl)-4-(3-trifluoromethylphenyl)thiosemicarbazide] | – | 65.2 | > 25 | indifferently | indifferently | additively | additively | indifferently | inhibitory action against topoisomerase IV [5]: no inhibitory effects
15.6 (≈ 42.4 µM) | 15.6 (≈ 42.4 µM) | 7.82 (≈ 21.2 µM) | 62.5 (≈ 170 µM) | 62.5 (≈ 170 µM) | 31.2 (≈ 84.9 µM) | 125 (≈ 339 µM) | 62.5 (≈ 170 µM) | > 500 | > 500 | 125 (≈ 339 µM) | 166 to 168 | O=C(NNC(=S)Nc1cccc(Br)c1)c1ccccc1F [compound 9, 4-(3-bromophenyl)-1-(2-fluorobenzoyl)thiosemicarbazide] | 62.50 (≈ 170 µM) | 63.1 | > 25 | indifferently | indifferently | additively | additively | indifferently | inhibitory action against topoisomerase IV [5]: no inhibitory effects

SMILES | MIC (B. cereus ATCC 10876) [µg/mL] | MIC (B. subtilis ATCC 6633) [µg/mL] | MIC (M. luteus ATCC 10240) [µg/mL] | MIC (S. aureus ATCC 25923 [1]; [6]) [µg/mL] | MIC (S. aureus ATCC 6538) [µg/mL] | MIC [2] [µg/mL] | MIC (MRSA-1) [µg/mL] | MIC (MSSA-1) [µg/mL] | MIC (MSSA-2) [µg/mL] | MIC (MSSA-3) [µg/mL] | MIC (MSSA-4) [µg/mL] | melting point [°C] | MIC (S. aureus ATCC 25923 [1]) [µg/mL] | viability at 24 h, 25 µg/mL (MTT cytotoxicity assay) [%] | IC50 [3] [µg/mL] | interaction in combination (S. aureus ATCC 25923 [4]; combination with amoxicillin) | interaction in combination (S. aureus ATCC 25923 [4]; combination with gentamicin) | interaction in combination (S. aureus ATCC 25923 [4]; combination with levofloxacin) | interaction in combination (S. aureus ATCC 25923 [4]; combination with linezolid) | interaction in combination (S. aureus ATCC 25923 [4]; combination with vancomycin) | further results
O=C(NNC(=S)Nc1cccc(Cl)c1)c1ccccc1F [compound 7, 4-(3-chlorophenyl)-1-(2-fluorobenzoyl)thiosemicarbazide] | 31.2 (≈ 96.5 µM) | 15.6 (≈ 48.3 µM) | 7.82 (≈ 24.2 µM) | 62.5 (≈ 193 µM) | 31.2 (≈ 96.5 µM) | 31.2 (≈ 96.5 µM) | 500 (≈ 1540 µM) | 125 (≈ 386 µM) | > 500 | 125 (≈ 386 µM) | 125 (≈ 386 µM) | 158 to 160 | 62.50 (≈ 193 µM) | 93.2 | > 25 | additively | no interactions | synergistically | no interactions | antagonistic | inhibition at 50 µM (S. aureus DNA gyrase; 50 µM): 23.8 ± 5.02%; inhibition at 100 µM (S. aureus DNA gyrase; 100 µM): 33.1 ± 1.04%
